Reference: PubChem BioAssay (NCI)
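Test compounds were applied to cells in 96-well plates for 48 hours at 5 doses. At the TGI there is no net growth.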

Assays:
Experiment in all cases: NCI tumour cell line growth inhibition, 48 h
MOLT-4 leukemia = test system: MOLT-4 leukemia
HOP-62 NSCLC = test system: HOP-62 NSCLC
UACC-62 melanoma = test system: UACC-62 melanoma
RXF 393 renal = test system: RXF 393 renal
M14 melanoma = test system: M14 melanoma
SW-620 colon = test system: SW-620 colon
COLO 205 colon = test system: COLO 205 colon
786-0 renal = test system: 786-0 renal
CCRF-CEM leukemia = test system: CCRF-CEM leukemia
MALME-3M melanoma = test system: MALME-3M melanoma
OVCAR-3 ovarian = test system: OVCAR-3 ovarian
MDA-MB-435 = test system: MDA-MB-435
BT-549 breast = test system: BT-549 breast
DU-145 prostate = test system: DU-145 prostate

| Compound | TGI (MOLT-4 leukemia) | TGI (HOP-62 NSCLC) | TGI (UACC-62 melanoma) | TGI (RXF 393 renal) | TGI (M14 melanoma) | TGI (SW-620 colon) | TGI (COLO 205 colon) | TGI (786-0 renal) | TGI (CCRF-CEM leukemia) | TGI (MALME-3M melanoma) | TGI (OVCAR-3 ovarian) | TGI (MDA-MB-435) | TGI (BT-549 breast) | TGI (DU-145 prostate) |
| --- | --- | --- | --- | --- | --- | --- | --- | --- | --- | --- | --- | --- | --- | --- |
| Cc1ccc(S(=O)(=O)N/N=C/c2oc(-c3ccccc3Cl)c(-c3ccccc3Cl)c2[N+](=O)[O-])cc1 | > 100 µM | 43.5 µM | 65.8 µM | 28.4 µM | > 100 µM | > 100 µM | > 100 µM | 72 µM | > 100 µM | 71.4 µM | > 100 µM | – | – | – |
| CCN(CC)c1nc(N(C)C)c2ccc(OC)cc2n1 | 22.1 µM | 76.7 µM | 24.8 µM | 34.7 µM | 22.2 µM | 50 µM | 21.6 µM | 89.3 µM | – | 55.1 µM | – | 24.6 µM | 64.8 µM | – |
| Cc1ccc(NC(=O)C(=O)C2NC(=S)NC2=O)c([N+](=O)[O-])c1 (stereo not drawn) | > 100 µM | > 100 µM | > 100 µM | > 100 µM | > 100 µM | > 100 µM | > 100 µM | > 100 µM | > 100 µM | > 100 µM | > 100 µM | – | – | – |
| COc1cc(C2c3[nH]c4ccc(F)cc4c3C[C@H]3COC(=O)N23)cc(OC)c1O (stereo partly drawn) | > 100 µM | 21.6 µM | 32.6 µM | 19.1 µM | 43.8 µM | – | 23.7 µM | 26 µM | > 100 µM | 55.7 µM | 56 µM | – | > 100 µM | 39.2 µM |
| CCOP(=O)(OCC)/C(C#N)=C/c1ccc[nH]1 | > 100 µM | > 100 µM | > 100 µM | > 100 µM | > 100 µM | > 100 µM | > 100 µM | > 100 µM | > 100 µM | > 100 µM | > 100 µM | – | – | – |
| NC(CCCCN=Cc1nc(-c2ccccc2)oc1O)C(=O)O (stereo not drawn) | > 100 µM | > 100 µM | > 100 µM | > 100 µM | > 100 µM | > 100 µM | > 100 µM | > 100 µM | > 100 µM | > 100 µM | > 100 µM | – | – | – |
| O=c1[nH]c(=O)n(C2CC(O)C(CO)O2)cc1C#Cc1cc(C(F)(F)F)cc(C(F)(F)F)c1 (stereo not drawn) | > 100 µM | > 100 µM | > 31.6 µM | 39 µM | > 46.5 µM | > 100 µM | > 42.7 µM | > 100 µM | > 100 µM | > 100 µM | > 100 µM | – | – | – |
| COc1ccc(CC2NCCc3cc(OC)c(OC)cc32)cc1 (stereo not drawn) | > 100 µM | > 100 µM | > 100 µM | > 100 µM | > 100 µM | > 100 µM | > 100 µM | > 100 µM | > 100 µM | > 100 µM | > 100 µM | – | – | – |
| CCN(CC)CCNc1ccc2ncn3c4c(OC)cccc4c(=O)c1c23 | – | 98 µM | 25.3 µM | 11.6 µM | 20.9 µM | 15.9 µM | 16.5 µM | 75 µM | 17.3 µM | 21.4 µM | 50.9 µM | 20.7 µM | – | 24.2 µM |
| O=C1c2ccccc2C(=O)C2C3c4ccccc4C(c4ccccc43)C12 (stereo not drawn) | 27.9 µM | > 100 µM | > 100 µM | 22.7 µM | > 100 µM | > 100 µM | > 100 µM | 18.9 µM | 26 µM | 38.8 µM | 45.8 µM | – | – | – |
| CC(C)C(Sc1nc(-c2ccccc2)c(-c2ccccc2)[nH]1)C(=O)N/N=C/c1ccc([N+](=O)[O-])cc1 (stereo not drawn) | 10.3 µM | 37.8 µM | 31.5 µM | – | 21.6 µM | 37.2 µM | 24.9 µM | 32.1 µM | 28.2 µM | 30 µM | 21.3 µM | – | – | – |
| Nc1ccc(C(=O)NN2C(=O)C(Cl)C2c2ccc([N+](=O)[O-])cc2)cc1 (stereo not drawn) | 9.8 µM | 23.2 µM | 24.7 µM | – | 26.5 µM | 26.2 µM | 29.1 µM | 16.6 µM | 14 µM | 25 µM | 18.4 µM | – | – | – |
| Fc1ccc(NCn2nc(COc3ccccc3Cl)n(/N=C/c3ccc(-c4ccc(Cl)cc4Cl)o3)c2=S)cc1Cl | 45.5 µM | > 100 µM | – | 56.6 µM | > 100 µM | > 100 µM | – | > 100 µM | > 100 µM | – | > 100 µM | > 100 µM | – | > 100 µM |
| CC(C)[Si](OCC1CC(C[C@H]2CC(C[C@H]3C[C@@H](CO[Si](C(C)C)(C(C)C)C(C)C)OC(C)(C)O3)OC(C)(C)O2)OC(C)(C)O1)(C(C)C)C(C)C (stereo partly drawn) | > 100 µM | > 100 µM | > 100 µM | > 100 µM | > 100 µM | > 100 µM | > 100 µM | > 100 µM | > 100 µM | > 100 µM | > 100 µM | – | – | – |
| COP(=O)(OC)C(O)/C=C(\Cl)c1ccc(Cl)cc1 (stereo not drawn) | 86.1 µM | > 100 µM | > 100 µM | > 100 µM | > 100 µM | > 100 µM | > 100 µM | 39.3 µM | 49 µM | > 100 µM | 43.3 µM | > 100 µM | – | > 100 µM |
| O=C1SC(c2ccccc2)(c2ccccc2)c2ccccc21 | > 100 µM | > 100 µM | > 100 µM | > 100 µM | > 100 µM | > 100 µM | > 100 µM | > 100 µM | > 100 µM | > 100 µM | > 100 µM | – | – | – |
| Cc1cc(NS(=O)(=O)c2ccc(NC(=O)c3cccc4cc5ccccc5nc34)cc2)no1 | 48.4 µM | 66.4 µM | 48.5 µM | 29.1 µM | 43 µM | 70.2 µM | 53.4 µM | 32.6 µM | 54.3 µM | 31.9 µM | 45.5 µM | – | – | – |
| O=C(O)C(Cc1cnc[nH]1)N=Cc1nc(-c2ccccc2)oc1O (stereo not drawn) | > 100 µM | > 100 µM | > 100 µM | > 100 µM | > 100 µM | > 100 µM | > 100 µM | > 100 µM | > 100 µM | > 100 µM | > 100 µM | – | – | – |
| COc1cc2c(oc(=O)c3cc4ccoc4c(OC)c32)c2cccc(O)c12 | > 100 µM | > 100 µM | > 100 µM | > 100 µM | > 100 µM | > 100 µM | > 100 µM | > 100 µM | > 100 µM | > 100 µM | > 100 µM | – | – | – |
| O=C1/C(=C/c2ccc(Cl)cc2)N=C(c2ccccc2)N1C1Nc2cc3c(cc2S1)NC(N1C(=O)/C(=C/c2ccc(Cl)cc2)N=C1c1ccccc1)S3 (stereo not drawn) | > 100 µM | > 100 µM | – | > 100 µM | > 100 µM | > 100 µM | – | > 100 µM | > 100 µM | – | > 100 µM | > 100 µM | – | > 100 µM |
| C[N+](C)(C)Cc1c(CC#N)[nH]c2ccccc12 | > 100 µM | > 100 µM | > 100 µM | > 100 µM | > 100 µM | > 100 µM | > 100 µM | > 100 µM | > 100 µM | > 100 µM | > 100 µM | – | – | – |
| Cc1ccc([N+](=O)[O-])cc1NC(=O)C(=O)Cc1cc(=O)oc2cc(O)ccc12 | > 100 µM | > 100 µM | > 100 µM | > 100 µM | > 100 µM | – | > 100 µM | > 100 µM | > 100 µM | > 100 µM | > 100 µM | – | – | – |
| CCCN1CN(c2ccccc2)C2(CCN(CCCC(=O)c3ccc(F)cc3)CC2)C1=O | 15.5 µM | 8.66 µM | 31.3 µM | 37 µM | 25.1 µM | 20.4 µM | 0.348 µM | 17.3 µM | 5.16 µM | 30.1 µM | 30.3 µM | 23.5 µM | – | 11.1 µM |
| CC1C2(C)OC(=N)C(C#N)(C(c3ccco3)O2)C1(C#N)C#N (stereo not drawn) | > 100 µM | – | 36.8 µM | 51.4 µM | 35.9 µM | 40.4 µM | 27.7 µM | 49.5 µM | 84.4 µM | 88.7 µM | 47.9 µM | – | > 100 µM | > 100 µM |
| O=c1[nH]c(=O)n(C2OC(CO)C(O)C2O)cc1OCCc1ccccc1 (stereo not drawn) | > 100 µM | > 100 µM | > 100 µM | > 100 µM | > 100 µM | > 100 µM | > 100 µM | > 100 µM | > 100 µM | > 100 µM | > 100 µM | > 100 µM | – | > 100 µM |
| O/N=C1/CCCCCC1NO (stereo not drawn) | > 100 µM | > 100 µM | > 100 µM | > 100 µM | > 100 µM | > 100 µM | > 100 µM | > 100 µM | – | > 100 µM | > 100 µM | > 100 µM | – | > 100 µM |
| O=c1oc2cccnc2n1CCN1CCN(c2ccc(Oc3ccccc3)cc2)CC1 | > 100 µM | > 100 µM | – | > 100 µM | > 100 µM | > 100 µM | – | > 100 µM | > 100 µM | > 100 µM | > 100 µM | > 100 µM | – | > 100 µM |
| Cc1nc2c(n1CCC(C)C)C(=O)c1ccccc1C2=O | 76.2 µM | 50.7 µM | 27 µM | 79.7 µM | 38 µM | > 100 µM | 30.8 µM | > 100 µM | 53.9 µM | 55.3 µM | 71.4 µM | – | – | – |
| CCCC(=O)/C=C/S/C=C/C(=O)CCC | – | 42.6 µM | 29.8 µM | 21.4 µM | 9 µM | 6.05 µM | – | 4.98 µM | – | 25.4 µM | 18.7 µM | 18.6 µM | – | 27.1 µM |
